Measured values as given in EP1304101A1, “Composition and method for use of pyridinium derivatives in cosmetic and therapeutic applications” (Torrent Pharmaceuticals Ltd, priority 2001, dated 2003).

Key:
AGE-BSA = target: T1, AGE-BSA (Bos taurus, UniProt P02769); test: In-vitro AGE breaking activity by ELISA (16 weeks AGE-BSA incubated with test compound); assay type: biochemical, bovine; settings: for % Breakage: 37°C, 24 hours
T1 construct: Bovine serum albumin (fraction V) (BSA); from tissue
Protocol: AGE breaking activity has been confirmed by the screening procedure as mentioned below: • Materials: • Bovine serum albumin (fraction V) (BSA) • Glucose, analytical grade • Phosphate buffered saline (PBS) • Equipment: • Microplate ELISA Reader - Spectramax Plus (Molecular Devices, USA) • Microplate washer, (Bio -Tec Instruments, USA) • pH meter • Methods of experiment: Elisa (Enzyme Linked Immunosorbent Assay) 160 mg/ml of protein, bovine serum albumin, BSA and 1.6M glucose sugar were dissolved in phosphate buffered saline, PBS. Sodium azide was added at 0.02% concentration as a preservative. The solution was filtered asceptically through a 0.22 µM filter and kept for aging at 37°C for 16 weeks. After 16 weeks the solution was dialyzed against PBS, aliquoted and stored at - 20°C.
To determine the AGE breaking activity, 10 µg/ml of the 16 weeks AGE-BSA was incubated with different concentrations of the test compounds at 37°C for 24 hours and AGE breaking activity of the test compounds by ELISA was determined.
Different concentrations of 16 weeks AGE-BSA were coated on a microtitre plate as standard. Each concentration is coated in triplicates. • 2. The test samples were coated on microtitre plate at a concentration of 5 ng. to 20 ng per well in triplicates. • 3. The plate was incubated at 37°C for one hour. • 4. After incubation the plate was washed with PBST (PBS with 0.05% Tween 20). • 5. Blocking with 5% skimmed milk in PBS at 37°C for one hour was done. • 6. The plate was washed with PBST. • 7. Primary antibody against AGE-BSA was added and the plate is incubated at 37°C for one hour. • 8. The plate was washed with PBST • 9. Secondary antibody anti rabbit HRPO (Horse-Radish Per Oxidase) conjugate was added and the plate is incubated at 37°C for one hour. • 10. The plate was washed with PBST. • 11. Colour development with OPD (orthophenylenediamine dihydrochloride) and hydrogen peroxide was done. • 12. OD (optical density) at (450nm reading - 620nm reading) was measured after incubation at 37°C for 15 minutes with Microplate ELISA Reader.
The breaker activity of the compounds were determined by the following formula: % Breaker activity =(OD450-620 Control - OD450-620 Test)/(OD450-620 Control)x 100 [formula] OD450-620Control= Absorbance of 20ng AGE-BSA after incubation at 37°C for 24 hours without test compound OD450-620Test= Absorbance of 20ng AGE-BSA after incubation at 37°C for 24 hours with required concentration of test compound

[1] = Free radical scavenging activity on ABTS radical cation (absorbance at 730nm); assay type: biochemical
Protocol: This method measures the relative ability of free radical scavenging substances to scavenge the ABTS ^.+ i.e. 2,2-Azino-bis-(3-ethyl benzo thiazoline-6-sulfonate) radical cation as compared to a standard amount of standard or free radical scavengers antioxidants. Incubation of ABTS with Peroxidase (metmyoglobin) and hydrogen peroxide results in the production of radical cation ABTS^.+ . This species is blue- green in colour and can be detected at 730nm. Antioxidants or free radical scavengers in the added sample that causes suppression of the color to a degree that is proportional to their concentration.
• A. Phosphate Citrate Buffer (pH 5.0): 48.5ml of 0.1M citric acid with sufficient 0.2M disodium hydrogen phosphate to produce 100 ml. • B. Phosphate Buffer Saline (PBS): Dissolve 40.0g of NaCl, 1.0g of KCI, 1.0g of KH2PO4 and 3.05g of Na2HPO4 in 1 litre milli-Q water. Dilute 200ml of above solution to 1 litre with milli-Q water (pH 7.4-7.6). • C. 3µM stock solution of Peroxidase was prepared in phosphate buffer saline pH 7.4(PBS). • D. 1.08 mM stock solution of Hydrogen peroxide was prepared in phosphate buffer saline pH 7.4 (PBS).
1 tablet (10mg) was dissolved in phosphate citrate buffer (pH 5.0).
5.0ml of ABTS stock solution was diluted with PBS to 20 ml.
320 µg of the enzyme was dissolved in 2.5 ml of PBS.
12µl of Hydrogen Peroxide (30%w/v) was diluted to 100ml with PBS.
0.1mM of stock solution of the drug was prepared which was serially diluted in PBS to get solutions of different concentrations.
To 18ml of ABTS stock solution, 100µl of Horseradish Peroxidase stock solution was added.
As soon as 1.5 ml of hydrogen peroxide solution was added to the above solution, blue-green colour of the ABTS radicals appeared. This solution was incubated at 30°C for 30 min.
980µl of ABTS radical stock solution was added to an eppendorf tube. To it was added 100µl of various PBS solution.
980µl of ABTS radical stock solutions were added to different eppendorf tubes. To it were added 100µl of various concentrations of drug solution.
The absorbance of control and test samples was recorded immediately at 730nm taking PBS as blank.
Calculation: The percent antioxidant activity was calculated according to the formula: % Antioxidant activity = [O.D of test sample/O.D of control*100]-100.

[2] = comparison in words based on Table 2

T1 sequence (P02769 25-607): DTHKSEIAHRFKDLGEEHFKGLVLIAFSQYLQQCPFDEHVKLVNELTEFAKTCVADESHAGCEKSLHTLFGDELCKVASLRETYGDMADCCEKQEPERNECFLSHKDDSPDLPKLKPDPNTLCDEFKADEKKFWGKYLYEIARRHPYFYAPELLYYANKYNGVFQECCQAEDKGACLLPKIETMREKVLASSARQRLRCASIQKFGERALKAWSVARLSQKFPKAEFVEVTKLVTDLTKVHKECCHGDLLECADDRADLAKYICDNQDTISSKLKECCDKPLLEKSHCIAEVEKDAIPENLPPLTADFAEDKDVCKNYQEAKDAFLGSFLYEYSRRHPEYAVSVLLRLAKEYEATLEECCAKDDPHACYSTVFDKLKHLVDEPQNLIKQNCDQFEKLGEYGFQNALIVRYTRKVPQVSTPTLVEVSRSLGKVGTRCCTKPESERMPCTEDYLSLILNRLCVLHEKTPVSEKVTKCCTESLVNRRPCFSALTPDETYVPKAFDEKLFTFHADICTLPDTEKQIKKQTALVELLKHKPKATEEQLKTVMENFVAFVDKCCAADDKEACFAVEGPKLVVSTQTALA

Compound | Relative Free Radical Scavenging Activity(%) on ABTS ([1]; 11.5µM) [%] | Relative Free Radical Scavenging Activity(%) on ABTS ([1]; 23.0µM) [%] | Relative Free Radical Scavenging Activity(%) on ABTS ([1]; 46.0µM) [%] | Relative Free Radical Scavenging Activity(%) on ABTS ([1]; 92.5µM) [%] | Relative Free Radical Scavenging Activity(%) on ABTS ([1]; 925µM) [%] | % Breakage (AGE-BSA; 10 mM test compound) [%] | also measured
O=C(C[n+]1cccc(C(=O)NNC(=O)c2ccc[n+](CC(=O)c3ccccc3)c2)c1)c1ccccc1 [Compound 1, N, N'-bis [3-carbonyl-1-(2-phenyl-2-oxoethyl)-pyridinium] hydrazine dibromide] | – | – | – | – | – | – | % Breakage (AGE-BSA; 5 mM test compound): 13%
O=C(NCCOC(=O)c1ccccc1)c1ccc[n+](CC(=O)c2ccc(Cl)cc2Cl)c1.[Br-] [Compound 8, 1-(2-(2',4'-dichlorophenyl) -2-oxoethyl) -3-(2-(benzoyloxy)ethylamino-carbonyl) pyridinium bromide] | 40.8 | 53.7 | 72.6 | 81.2 | 100 | – | –
CC(=O)OCCOC(=O)c1ccc[n+](CC(=O)c2ccccc2)c1.[Br-] [Compound 16, 1-(2-phenyl-2-oxoethyl) -3-(2-(acetoxy)ethyloxycarbonyl) pyridinium bromide] | – | – | – | – | – | 16 | –
CCOC(=O)C[n+]1cccc(C(=O)OCCOC(=O)c2ccccc2)c1.[Br-] [Compound 17, 1-(2-ethoxy-2-oxoethyl) -3-(2-(benzoyloxy)ethyloxycarbonyl) pyridinium bromide] | – | – | – | – | – | 19 | –
O=C(NCCOC(=O)c1ccccc1)c1cc[n+](CC(=O)c2cccs2)cc1.[Br-] [Compound 18, 1-(2-thien-2'-yl-2-oxoethyl)-4-(2-(benzoyloxy)ethylaminocarbonyl) pyridinium bromide] | 41.8 | 59.5 | 75.2 | 91.0 | 100 | – | –
O=C(C[n+]1cccc(C(=O)NCCOC(=O)c2ccccc2)c1)Nc1ccccc1.[Cl-] [Compound 23, 1-(2-phenylamino-2-oxoethyl)-3-((benzoyloxy)ethylaminocarbonyl) pyridinium chloride] | – | – | – | – | – | 37 | % Breakage (AGE-BSA; 25 mM test compound): 90%; AGE breaking activity compared to PTB (AGE-BSA; [2]): superior
Cc1ccc(S(=O)(=O)NNC(=O)c2ccc[n+](CC(=O)Nc3ccccc3)c2)cc1.[Cl-] [Compound 27, 1-(2-phenylamino-2-oxoethyl)-3-((4-methylphenyl)sulfonyl hydrazinocarbonyl) pyridinium chloride] | 43.9 | 55.5 | 75.3 | 99.6 | 100 | – | –
O=C(C[n+]1cccc(C(=O)NNS(=O)(=O)Cc2ccccc2)c1)c1ccccc1.[Br-] [Compound 31, 1-(2-phenyl-2-oxoethyl)-3-((phenylmethyl)sulfonyl hydrazinocarbonyl) pyridinium bromide] | 41.6 | 57.7 | 66.9 | 99.2 | 100 | – | –
O=C(NNC(=O)c1ccc[n+](CC(=O)c2ccco2)c1)c1ccc[n+](CC(=O)c2ccco2)c1 [Compound 32, N, N' - bis [3-carbonyl-1-(2-furan-2'-yl-2-oxoethyl)pyridinium] hydrazine dibromide] | – | – | – | – | – | 14 | –
O=C(CCC1CCCCC1)NNC(=O)c1ccc[n+](CC(=O)c2cccs2)c1.[Br-] [Compound 34, 1-(2-thien-2'-yl-2-oxoethyl)-3-((2-(1-oxo-3-cyclohexyl)-ethyl)-hydrazinocarbonyl)-pyridinium bromide] | 50.3 | 53.8 | 65.4 | 80.4 | 100 | – | –
O=C1CCCC(CCNNC(=O)c2ccc[n+](CC(=O)Nc3ccccc3)c2)C1.[Br-] (centres unmarked) [Compound 35, 1-(2-phenylamino-2-oxoethyl)-3-({2-(1-oxo-3-cyclohexyl)-ethyl} -hydrazinocarbonyl}-pyridinium bromide] | 50.5 | 63.4 | 80.9 | 90.6 | 100 | – | –
O=C(NCCOC(=O)c1ccccc1)c1ccc[n+](CC(=O)c2cccs2)c1.[Br-] [Compound 36, 1-(2-thien-2'-yl-2-oxoethyl)-3-[2-(benzoyloxy)ethylaminocarbonyl]-pyridinium bromide] | 27.6 | 59.2 | 74.2 | 83.9 | 100 | – | –
COCCNC(=O)c1ccc[n+](CC(=O)NC2CC2)c1.[Cl-] [Compound 40, 1-(2-cyclopropylamino-2-oxoethyl)-3-(2-methoxyethylaminocarbonyl)-pyridinium chloride] | – | – | – | – | – | 12.38 | –
O=C(NNC(=O)c1cccnc1Cl)c1ccc[n+](CC(=O)c2cccs2)c1 [Compound 42, 1-(2-thien-2'yl-2-oxoethyl)-3-(2-(2-chloro-3-pyridoyl)hydrazinocarbonyl) -pyridinium chloride] | – | – | – | – | – | 12.51 | –
CC(C)NC(=O)C[n+]1cccc(C(=O)NNS(C)(=O)=O)c1.[Cl-] [Compound 43, 1-(2-isopropylamino-2-oxoethyl)-3-(2-methylsulfonylhydrazinocarbonyl) -pyridinium chloride] | – | – | – | – | – | 10.85 | –
COCCNC(=O)c1cc(Br)c[n+](CC(=O)c2cccs2)c1 [Compound 47, 1-(2-thien-2'-yl-2-oxoethyl)-3-((2-methoxyethyl)aminocarbonyl)-5-bromo pyridinium chloride] | – | – | – | – | – | 32.38 | AGE breaking activity compared to PTB (AGE-BSA; [2]): superior
Cc1ccc(C(=O)NNC(=O)c2ccc[n+](CC(=O)c3cccs3)c2)c[n+]1CC(=O)c1cccs1 [Compound 49, 1-[1-(2-thien-2'-yl-2-oxoethyl)-6-methyl-3-carbonylpyridinium]-2-[1-(2-Thien-2' -yl-2-oxoethyl)-3-carbonylpyridinium] hydrazine dichloride] | – | – | – | – | – | – | % Breakage (AGE-BSA; 2.5 mM test compound): 85.67%; AGE breaking activity compared to PTB (AGE-BSA; [2]): superior; potency (AGE breaking activity compared to PTB) (AGE-BSA; [2]): significantly much higher
CCOC(=O)C1CCCN1C(=O)C[n+]1cccc(C(=O)NNS(C)(=O)=O)c1.[Cl-] (centres unmarked) [Compound 52, 1-(2-(2-ethoxycarbonylpyrrolidin-1-yl)-2-oxoethyl)-3-(methanesulfonyl hydrazinocarbonyl) pyridinium chloride] | – | – | – | – | – | 25.34 | –
O=C=Nc1ccc[n+](CC(=O)c2ccc(Cl)cc2Cl)c1.[Br-] [Compound 82, 3-Carbonylamino-1-(2-(2,4-dichlorophenyl)-2-oxoethyl)-pyridinium bromide] | 26.0 | 44.3 | 62.7 | 75.5 | 100 | – | –
CCCCNC(=O)c1ccc[n+](CC(=O)c2ccc(Cl)cc2Cl)c1.[Br-] [Compound 97, 1-(2 - (2, 4 - Dichlorophenyl) - 2-oxoethyl) - 3-(n-butylamino-carbonyl) pyridinium bromide] | 16.5 | 27 | 37.8 | 44.5 | 97.8 | – | –
O=C(C[n+]1cccc(C(=O)c2ccccc2)c1)c1ccccc1.[Br-] [Compound 98, 1-(2-Phenyl-2-oxoethyl)-3-(1-phenyl-1-oxomethyl) pyridinium bromide] | 7.1 | 26.9 | 51.1 | 78.6 | 99.1 | – | –
NC(=O)c1cccnc1 [Niacinamide, reference compound] | 0.0 | 2.2 | 3.8 | 3.8 | 9.2 | – | –
